From ChEMBL document CHEMBL1150600, “Callyspongynic acid, a polyacetylenic acid which inhibits alpha-glucosidase, from the marine sponge Callyspongia truncata” (J Nat Prod, 2002)
The source made the active and inactive calls. The calls are words filed in the database; no cut-off is given here.

Columns and labels:
[1] = test system: alpha-glucosidase (Saccharomyces cerevisiae); test: Inhibition of alpha-glucosidase at 100 ug/ml after 30 mins
[2] = target: T1, Cytosolic beta-glucosidase (Homo sapiens) (UniProt Q9H227); test: Inhibition of beta-glucosidase at 100 ug/ml
T1 sequence (whole entry): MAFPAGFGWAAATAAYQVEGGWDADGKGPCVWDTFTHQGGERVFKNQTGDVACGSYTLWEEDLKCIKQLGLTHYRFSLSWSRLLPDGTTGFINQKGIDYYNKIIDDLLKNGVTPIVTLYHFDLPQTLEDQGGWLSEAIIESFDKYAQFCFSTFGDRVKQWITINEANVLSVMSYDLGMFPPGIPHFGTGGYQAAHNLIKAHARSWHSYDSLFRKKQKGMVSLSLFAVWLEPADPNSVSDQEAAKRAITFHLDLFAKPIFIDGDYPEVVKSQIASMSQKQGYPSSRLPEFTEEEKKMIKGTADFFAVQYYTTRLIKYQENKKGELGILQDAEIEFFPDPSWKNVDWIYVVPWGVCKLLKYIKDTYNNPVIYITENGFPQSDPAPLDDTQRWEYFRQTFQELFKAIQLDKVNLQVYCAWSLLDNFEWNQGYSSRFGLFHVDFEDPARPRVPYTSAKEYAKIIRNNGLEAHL

[3] = target: T2, Beta-galactosidase (Homo sapiens) (UniProt P16278); test: Inhibition of beta-galactosidase at 100 ug/ml
T2 sequence (whole entry): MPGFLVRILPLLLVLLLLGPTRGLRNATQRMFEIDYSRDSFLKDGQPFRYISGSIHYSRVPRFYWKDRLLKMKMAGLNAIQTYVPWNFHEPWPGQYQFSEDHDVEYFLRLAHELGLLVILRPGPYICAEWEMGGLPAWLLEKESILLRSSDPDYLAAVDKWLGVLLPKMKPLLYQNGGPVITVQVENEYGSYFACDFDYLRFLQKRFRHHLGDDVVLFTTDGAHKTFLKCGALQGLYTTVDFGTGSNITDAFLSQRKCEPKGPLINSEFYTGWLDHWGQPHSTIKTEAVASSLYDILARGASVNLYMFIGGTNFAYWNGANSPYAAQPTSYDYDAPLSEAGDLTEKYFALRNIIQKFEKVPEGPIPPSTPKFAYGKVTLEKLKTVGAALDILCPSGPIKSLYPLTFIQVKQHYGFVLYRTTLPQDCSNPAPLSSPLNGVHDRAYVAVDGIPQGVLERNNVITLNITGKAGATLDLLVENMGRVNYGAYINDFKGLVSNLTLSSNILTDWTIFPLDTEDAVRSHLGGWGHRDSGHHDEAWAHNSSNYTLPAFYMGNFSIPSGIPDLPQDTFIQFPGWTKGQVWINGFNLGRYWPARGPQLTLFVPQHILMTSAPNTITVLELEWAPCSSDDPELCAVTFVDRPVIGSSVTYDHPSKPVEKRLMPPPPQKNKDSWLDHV

[4] = target: Prothrombin (Homo sapiens) (UniProt P00734); test: Inhibition of thrombin at 100 ug/ml
[5] = Inhibition of trypsin at 100 ug/ml

Row | Activity [1] | Activity [2] | Activity [3] | Activity [4] | Activity [5] | Compound
1 | inactive |  |  |  |  | C#C/C=C\CCCC#CC#CCCCCCC/C=C\C#C
2 | inactive |  |  |  |  | C#C[C@@H](O)/C=C/CCCCCC#CC#CCCCC#CCCCC#CCCCCCC#CC(=O)OC
3 |  | inactive | inactive | inactive | inactive | C#C[C@@H](O)/C=C/CCCCCC#CC#CCCCC#CCCCC#CCCCCCC#CC(=O)O
